Laboratory results from PMC5967867, “An NMDAR positive and negative allosteric modulator series share a binding site and are interconverted by methyl groups” (eLife, 2018).
Where two headings read alike, the source gives them in different places.

Columns and labels:
[1] = target: GluN1/GluN2A NMDARs (Rattus norvegicus, UniProt P35439+Q00959); test: Two-electrode voltage-clamp recordings, Xenopus laevis oocytes expressing GluN1/GluN2A; type: cell-based; settings: saturating glutamate/glycine 100/30 µM; for EC50: mean [95% CI], - = not fit, response at 30 µM differed by no more than 15% from control, read-out: EC50 (µM) [conf. int.]; for Emax: mean ± SEM, read-out: Maximal Degree of Modulation (% of control)
Chain of GluN1/GluN2A NMDARs (Q00959 23-1464, other chains not shown): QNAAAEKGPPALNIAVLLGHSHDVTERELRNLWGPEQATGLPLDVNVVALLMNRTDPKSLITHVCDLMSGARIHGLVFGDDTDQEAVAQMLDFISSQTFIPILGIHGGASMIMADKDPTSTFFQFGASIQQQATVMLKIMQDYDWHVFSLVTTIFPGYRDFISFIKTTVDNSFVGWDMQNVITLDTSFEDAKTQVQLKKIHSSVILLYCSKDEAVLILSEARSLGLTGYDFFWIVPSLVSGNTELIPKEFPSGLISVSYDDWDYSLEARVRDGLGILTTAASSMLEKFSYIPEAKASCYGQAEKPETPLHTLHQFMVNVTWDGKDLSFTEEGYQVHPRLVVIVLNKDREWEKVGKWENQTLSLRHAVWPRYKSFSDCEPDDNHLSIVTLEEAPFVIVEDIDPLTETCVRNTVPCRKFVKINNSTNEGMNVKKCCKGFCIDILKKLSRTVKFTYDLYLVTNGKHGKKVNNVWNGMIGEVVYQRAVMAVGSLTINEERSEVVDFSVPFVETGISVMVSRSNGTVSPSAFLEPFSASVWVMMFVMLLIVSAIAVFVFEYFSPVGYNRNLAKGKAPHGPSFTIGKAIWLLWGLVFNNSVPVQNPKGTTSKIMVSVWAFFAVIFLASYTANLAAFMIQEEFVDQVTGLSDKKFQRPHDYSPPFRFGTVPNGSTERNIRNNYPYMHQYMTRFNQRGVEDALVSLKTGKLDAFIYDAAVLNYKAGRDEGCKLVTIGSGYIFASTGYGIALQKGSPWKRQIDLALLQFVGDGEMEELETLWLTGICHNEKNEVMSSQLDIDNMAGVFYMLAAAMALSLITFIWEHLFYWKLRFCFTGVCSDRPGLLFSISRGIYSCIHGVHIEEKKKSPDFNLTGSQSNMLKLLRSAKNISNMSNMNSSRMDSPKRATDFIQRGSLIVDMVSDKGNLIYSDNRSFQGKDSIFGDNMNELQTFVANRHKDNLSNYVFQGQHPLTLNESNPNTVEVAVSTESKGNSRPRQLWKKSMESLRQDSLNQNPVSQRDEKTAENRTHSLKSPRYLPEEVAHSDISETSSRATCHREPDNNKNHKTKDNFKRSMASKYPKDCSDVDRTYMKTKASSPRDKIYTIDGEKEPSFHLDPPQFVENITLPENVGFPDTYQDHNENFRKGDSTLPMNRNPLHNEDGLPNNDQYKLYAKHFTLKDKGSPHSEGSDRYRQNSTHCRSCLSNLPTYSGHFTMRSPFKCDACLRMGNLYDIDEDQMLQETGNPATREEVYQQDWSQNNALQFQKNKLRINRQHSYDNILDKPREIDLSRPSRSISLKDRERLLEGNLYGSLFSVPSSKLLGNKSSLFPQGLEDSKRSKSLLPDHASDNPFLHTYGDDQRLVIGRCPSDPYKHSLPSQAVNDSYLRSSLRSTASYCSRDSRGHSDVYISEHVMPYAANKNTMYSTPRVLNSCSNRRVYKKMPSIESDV
Procedure: (§1) cDNAs for rat wild type NMDAR subunits GluN1-1a (GenBank U11418, U08261; hereafter GluN1 or GluN1a), GluN1-1b (U08263, hereafter GluN1b), GluN2A (D13211), GluN2B (U11419), GluN2C (M91563), and GluN2D (L31611, modified as described in [Monyer et al., 1994]) were provided by Drs. S. Heinemann (Salk Institute), S. Nakanishi (Kyoto University), and P. Seeburg (University of Heidelberg). Site-directed mutagenesis was conducted using the QuikChange kit (Agilent Technologies, Santa Clara, CA) following the recommended protocol. DNA sequencing was used to verify all mutations. The amino acid numbering system started with the initiating methionine as residue number one. For expression in Xenopus laevis oocytes, cDNA constructs were linearized by restriction enzymes, and subsequently used to synthesize in vitro cRNAs following the manufacturer’s protocol (mMessage mMachine, Ambion, ThermoFisher Scientific, Waltham, MA).
(§2) Xenopus laevis stage VI oocytes (Ecocyte Biosciences, Austin, TX) were injected as previously described ([Hansen et al., 2013]) 2–7 days prior to recording with cRNA encoding the NMDAR subunits and stored at 15°C in media containing (in mM) 88 NaCl, 2.4 NaHCO3, 1 KCl, 0.33 Ca(NO3)2, 0.41 CaCl2, 0.82 MgSO4, 5 Tris-HCl; pH was adjusted to 7.4 with NaOH and the solution supplemented with 1 U/mL penicillin, 0.1 mg/mL gentamicin sulfate, and 1 μg/mL streptomycin. Two-electrode voltage-clamp recordings were performed at room temperature (21–23°C) using different internal solutions for voltage and current electrodes (0.3 M and 3.0 M KCl, respectively). All extracellular solutions were made from a solution containing (in mM) 90 NaCl, 1 KCl, 10 HEPES, 0.5 BaCl2, 0.01 EDTA (pH 7.4 with NaOH). Experiments were performed using an eight port Modular Valve Positioner (Hamilton Company, Reno, NV) and controlled by custom software (Easy Oocyte, Emory University, Atlanta, GA)to exchange solutions. Oocyte currents were recorded at a holding potential of −40 mV using a two-electrode voltage-clamp amplifier (OC-725B or OC-725C, Warner Instruments, Hamden, CT). […] In MTSEA experiments, fresh MTSEA solutions (0.2 mM) were prepared and utilized in less than 30 min to limit compound degradation.
(§3) Measurements are given as mean ± SEM unless otherwise indicated. The number of replicate experiments used was chosen to ensure a power level of at least 0.80 when α = 0.05 and when detecting appropriate effect sizes. EC50 and IC50 values and confidence intervals reported were calculated by averaging the log(EC50) or log(IC50) value, determining confidence intervals for mean log(EC50) or log(IC50), and converting back to units of molarity. Statistical significance evaluations (α set to 0.05) were performed using a one-way ANOVA with Dunnett’s multiple comparison test, a paired t–test, or other appropriate tests as described.

[2] = target: GluN1/GluN2B NMDARs (Rattus norvegicus, UniProt P35439+Q00960); test: Two-electrode voltage-clamp recordings, Xenopus laevis oocytes expressing GluN1/GluN2B; type: cell-based; settings: saturating glutamate/glycine 100/30 µM; for EC50: mean [95% CI], - = not fit, response at 30 µM differed by no more than 15% from control, read-out: EC50 (µM) [conf. int.]; for Emax: mean ± SEM, read-out: Maximal Degree of Modulation (% of control)
Chain of GluN1/GluN2B NMDARs (Q00960 27-1482, other chains not shown): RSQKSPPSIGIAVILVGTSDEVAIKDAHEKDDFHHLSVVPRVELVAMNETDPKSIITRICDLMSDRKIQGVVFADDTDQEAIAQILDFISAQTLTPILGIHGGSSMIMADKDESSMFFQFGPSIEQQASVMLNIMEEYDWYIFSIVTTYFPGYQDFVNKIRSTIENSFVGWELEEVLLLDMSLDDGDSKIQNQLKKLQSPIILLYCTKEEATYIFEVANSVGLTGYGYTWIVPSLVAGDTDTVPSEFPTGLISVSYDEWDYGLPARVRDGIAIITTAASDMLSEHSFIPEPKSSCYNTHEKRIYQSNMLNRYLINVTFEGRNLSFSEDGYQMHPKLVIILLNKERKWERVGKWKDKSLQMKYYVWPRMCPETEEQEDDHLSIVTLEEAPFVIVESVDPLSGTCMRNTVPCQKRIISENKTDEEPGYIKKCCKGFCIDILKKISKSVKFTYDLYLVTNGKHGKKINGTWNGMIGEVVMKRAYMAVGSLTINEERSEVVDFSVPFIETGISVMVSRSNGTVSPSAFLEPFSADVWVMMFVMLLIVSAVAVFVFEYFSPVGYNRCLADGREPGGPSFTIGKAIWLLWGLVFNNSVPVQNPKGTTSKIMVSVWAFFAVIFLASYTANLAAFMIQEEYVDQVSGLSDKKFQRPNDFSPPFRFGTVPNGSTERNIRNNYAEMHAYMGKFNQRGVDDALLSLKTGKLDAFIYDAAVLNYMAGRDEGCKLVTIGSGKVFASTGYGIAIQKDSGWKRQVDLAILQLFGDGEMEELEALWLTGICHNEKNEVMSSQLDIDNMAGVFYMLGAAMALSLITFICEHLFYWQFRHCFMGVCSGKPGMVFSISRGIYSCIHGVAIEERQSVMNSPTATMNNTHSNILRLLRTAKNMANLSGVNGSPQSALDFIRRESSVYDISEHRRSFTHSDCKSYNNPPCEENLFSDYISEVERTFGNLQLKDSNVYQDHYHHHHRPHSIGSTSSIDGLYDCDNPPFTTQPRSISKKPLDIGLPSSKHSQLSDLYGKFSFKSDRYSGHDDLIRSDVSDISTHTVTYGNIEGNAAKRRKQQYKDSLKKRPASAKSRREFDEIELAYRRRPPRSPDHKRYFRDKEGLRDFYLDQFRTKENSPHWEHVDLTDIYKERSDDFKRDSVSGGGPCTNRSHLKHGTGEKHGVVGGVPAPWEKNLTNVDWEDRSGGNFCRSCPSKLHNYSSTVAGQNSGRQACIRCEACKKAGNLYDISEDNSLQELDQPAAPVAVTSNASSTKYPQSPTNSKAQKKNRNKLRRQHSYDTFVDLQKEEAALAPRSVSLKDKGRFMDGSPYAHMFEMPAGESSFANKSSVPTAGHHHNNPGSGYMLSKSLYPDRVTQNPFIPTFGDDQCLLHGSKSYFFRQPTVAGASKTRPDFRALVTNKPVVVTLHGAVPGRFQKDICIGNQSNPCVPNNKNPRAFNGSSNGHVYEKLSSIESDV
Procedure: as §1, §2, §3

[3] = target: GluN1/GluN2C NMDARs (Rattus norvegicus, UniProt P35439+Q00961); test: Two-electrode voltage-clamp recordings, Xenopus laevis oocytes expressing GluN1/GluN2C; type: cell-based; settings: saturating glutamate/glycine 100/30 µM; for EC50: mean [95% CI], read-out: EC50 (µM) [conf. int.]; for Emax: mean ± SEM, read-out: Maximal Degree of Modulation (% of control)
Chain of GluN1/GluN2C NMDARs (Q00961 20-1237, other chains not shown): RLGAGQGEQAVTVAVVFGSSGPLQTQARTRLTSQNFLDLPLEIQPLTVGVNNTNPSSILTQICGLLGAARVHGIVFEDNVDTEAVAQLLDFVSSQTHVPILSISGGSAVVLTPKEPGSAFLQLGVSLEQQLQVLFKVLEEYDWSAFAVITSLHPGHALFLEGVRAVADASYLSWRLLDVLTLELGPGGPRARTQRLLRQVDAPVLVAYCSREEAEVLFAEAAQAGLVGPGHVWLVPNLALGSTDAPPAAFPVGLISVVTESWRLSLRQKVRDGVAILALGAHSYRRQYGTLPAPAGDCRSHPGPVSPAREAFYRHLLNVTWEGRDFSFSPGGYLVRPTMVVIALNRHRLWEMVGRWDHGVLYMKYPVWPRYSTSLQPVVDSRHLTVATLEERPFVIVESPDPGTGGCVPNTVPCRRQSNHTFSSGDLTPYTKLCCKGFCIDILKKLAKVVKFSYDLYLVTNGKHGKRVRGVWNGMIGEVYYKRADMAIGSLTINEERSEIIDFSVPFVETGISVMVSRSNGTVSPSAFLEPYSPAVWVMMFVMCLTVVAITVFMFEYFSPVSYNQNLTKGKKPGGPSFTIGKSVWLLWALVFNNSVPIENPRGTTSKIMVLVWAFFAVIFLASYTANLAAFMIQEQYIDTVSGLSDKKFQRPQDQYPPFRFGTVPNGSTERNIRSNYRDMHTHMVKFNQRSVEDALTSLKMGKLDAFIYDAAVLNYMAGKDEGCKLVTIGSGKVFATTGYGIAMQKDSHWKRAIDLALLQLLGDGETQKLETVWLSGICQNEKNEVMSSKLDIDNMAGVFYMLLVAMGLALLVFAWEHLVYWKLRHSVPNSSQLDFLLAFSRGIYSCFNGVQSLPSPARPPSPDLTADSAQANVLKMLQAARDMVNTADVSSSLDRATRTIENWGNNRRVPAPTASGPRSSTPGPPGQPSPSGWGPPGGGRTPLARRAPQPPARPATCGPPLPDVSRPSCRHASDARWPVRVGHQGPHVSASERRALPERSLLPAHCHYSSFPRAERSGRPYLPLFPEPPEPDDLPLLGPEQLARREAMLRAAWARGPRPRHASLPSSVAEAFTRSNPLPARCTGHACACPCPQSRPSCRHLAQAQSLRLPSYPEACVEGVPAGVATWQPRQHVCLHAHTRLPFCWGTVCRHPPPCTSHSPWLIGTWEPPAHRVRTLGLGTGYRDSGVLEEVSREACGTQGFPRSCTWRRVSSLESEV
Procedure: as §1, §2, §3

[4] = target: GluN1/GluN2D NMDARs (Rattus norvegicus, UniProt P35439+Q62645); test: Two-electrode voltage-clamp recordings, Xenopus laevis oocytes expressing GluN1/GluN2D; type: cell-based; settings: for Emax: mean ± SEM, read-out: Maximal Degree of Modulation (% of control)
Procedure: cDNAs for rat wild type NMDAR subunits GluN1-1a (GenBank U11418, U08261; hereafter GluN1 or GluN1a), GluN1-1b (U08263, hereafter GluN1b), GluN2A (D13211), GluN2B (U11419), Glu[…]), and Glu[…], modified as described in [Monyer et al., 1994]) were provided by Drs. S. Heinemann (Salk Institute), S. Nakanishi (Kyoto University), and P. Seeburg (University of Heidelberg). Site-directed mutagenesis was conducted using the QuikChange kit (Agilent Technologies, Santa Clara, CA) following the recommended protocol. DNA sequencing was used to verify all mutations. The amino acid numbering system started with the initiating methionine as residue number one. For expression in Xenopus laevis oocytes, cDNA constructs were linearized by restriction enzymes, and subsequently used to synthesize in vitro cRNAs following the manufacturer's protocol (mMessage mMachine, Ambion, ThermoFisher Scientific, Waltham, MA). […] All extracellular solutions were made from a solution containing (in mM) 90 NaCl, 1 KCl, 10 HEPES, 0.5 BaCl2, 0.01 EDTA (pH 7.4 with NaOH). Experiments were performed using an eight port Modular Valve Positioner (Hamilton Company, Reno, NV) and controlled by custom software (Easy Oocyte, Emory University, Atlanta, GA)to exchange solutions. Oocyte currents were recorded at a holding potential of -40 mV using a two-electrode voltage-clamp amplifier (OC-725B or OC-725C, Warner Instruments, Hamden, CT). […] Measurements are given as mean ± SEM unless otherwise indicated. […] EC50 and IC50 values and confidence intervals reported were calculated by averaging the log(EC50) or log(IC50) value, determining confidence intervals for mean log(EC50) or log(IC50), and converting back to units of molarity. Statistical significance evaluations (α set to 0.05) were performed using a one-way ANOVA with Dunnett's multiple comparison test, a paired t-test, or other appropriate tests as described.

[5] = test system: NMDAR; set-up: method as in Kew et al., 1996; settings: ref Kew et al., 1996; cited from earlier work
[6] = saturating glutamate/glycine 100/30 µM, mean [95% CI], read-out: EC50 (µM) [conf. int.]
[7] = saturating glutamate/glycine 100/30 µM

| Structure (SMILES) | EC50 [1] [µM] | Emax [1] [%] | EC50 [2] [µM] | Emax [2] [%] | EC50 [3] [µM] | Emax [3] [%] | EC50 [4, 6] [µM] | Emax [4, 7] [%] | melting point | residual current at saturating levels [5] | EC50 ([4]; read-out: Control Glutamate EC50 (µM) [conf. int.], glutamate EC50 in 30 µM glycine, absence of EU1794-27) [µM] |
| --- | --- | --- | --- | --- | --- | --- | --- | --- | --- | --- | --- |
| CC1CCc2c(sc(NC(=O)CC3SC(=N)NC3=O)c2C(=O)OC(C)C)C1 (stereo not shown) [EU1794-19, isopropyl 2-(2-(2-imino-4-oxothiazolidin-5-yl)acetamido)-6-methyl-4,5,6,7-tetrahydrobenzo[b]thiophene-3-carboxylate] | 1.1 | 19 | 1.1 | 43 | 0.74 | 32 | 0.43 | 46 | 229 °C (dec.) |  |  |
| CC(C(O)c1ccc(O)cc1)N1CCC(Cc2ccccc2)CC1 (stereo not shown) [ifenprodil] |  |  |  |  |  |  |  |  |  | ~ 10% |  |
| CC(C)OC(=O)c1c(NC(=O)CC2SC(=N)NC2=O)sc2c1CCCC2 (stereo not shown) [EU1794-5, isopropyl 2-(2-(2-imino-4-oxothiazolidin-5-yl)acetamido)-4,5,6,7-tetrahydrobenzo[b]thiophene-3-carboxylate] | 18 | 36 | 2.5 | 71 | 4 | 140 | 9.3 |  | 152 to 154 °C |  |  |
| N[C@@H](CCC(=O)O)C(=O)O [Glutamate, reference compound] |  |  |  |  |  |  |  |  |  |  | 0.21 |

Further lines, with some results ahead:

| EC50 [1] [µM] | Emax [1] [%] | EC50 [2] [µM] | Emax [2] [%] | EC50 [3] [µM] | Emax [3] [%] | EC50 [4, 6] [µM] | Emax [4, 7] [%] | melting point | Structure (SMILES) | residual current at saturating levels [5] | EC50 ([4]; read-out: Control Glutamate EC50 (µM) [conf. int.], glutamate EC50 in 30 µM glycine, absence of EU1794-27) [µM] |
| --- | --- | --- | --- | --- | --- | --- | --- | --- | --- | --- | --- |
| > 30 |  | 1 | 220 | 0.77 | 180 | 1 | 250 |  | N=C1NC(=O)C(CC(=O)Nc2sc3c(c2C(=O)OCc2ccccc2)CCCC3)S1 (stereo not shown) [EU1794-25, benzyl 2-(2-(2-imino-4-oxothiazolidin-5-yl)acetamido)-4,5,6,7-tetrahydrobenzo[b]thiophene-3-carboxylate] |  |  |
| 3.7 | 59 | 1.4 | 140 | 3.8 | 130 | 5.7 | 166 |  | CCCCOC(=O)c1c(NC(=O)CC2SC(=N)NC2=O)sc2c1CCCC2 (stereo not shown) [EU1794-29, butyl 2-(2-(2-imino-4-oxothiazolidin-5-yl)acetamido)-4,5,6,7-tetrahydrobenzo[b]thiophene-3-carboxylate] |  |  |
